The text below walks through data of paper PMC6961345 (Antiviral Chemistry & Chemotherapy, 2018).

Where “and” joins values, the source holds several entries; their conditions need not be identical. Identical values can stand only once.

This assay relates to A/Georgia/20/2006 (H1N1) H275Y. Format: cell-based, influenza A virus.

Turning to `C[n+]1ccc(C(=O)NCc2ccccc2)cc1` [enisamium, N-methyl-4-benzylcarbamidopyridinium], the concentration for an effect of 90% (EC90) – broadly, the concentration at which the effect reaches the 90% level – is 144 µM and 286 µM.
